The values below come from PMC10511495, “Dermato-cosmeceutical properties of Pseudobombax ellipticum (Kunth) Dugand: Chemical profiling, in vitro and in silico studies” (Saudi Pharmaceutical Journal : SPJ, 2023).

For assay [1], the target named is T1, Porcine pancreatic elastase (Sus scrofa, UniProt P00772).
T1 construct: gene CELA1; native pancreatic enzyme preparation; docking used another elastase (Zn metalloprotease, MMP12)
Briefly: chromogenic peptide hydrolysis, absorbance at […] nm. Format: biochemical. Particulars: 0.8 mM N-succinyl-Ala-Ala-Ala-p-nitroanilide; 15 min preincubation.

For assay [2], the target named is T2, Collagenase from Clostridium histolyticum (ChC).
T2 construct: gene colG; docking used another collagenase (MMP)
Briefly: FALGPA hydrolysis, absorbance at […] nm. Format: biochemical, Hathewaya histolytica. Particulars: 2 mM FALGPA solution; 50 mM Tricine, 400 mM NaCl, 10 mM CaCl2, pH 7.5; 15 min preincubation.

T1 sequence (P00772 27-266): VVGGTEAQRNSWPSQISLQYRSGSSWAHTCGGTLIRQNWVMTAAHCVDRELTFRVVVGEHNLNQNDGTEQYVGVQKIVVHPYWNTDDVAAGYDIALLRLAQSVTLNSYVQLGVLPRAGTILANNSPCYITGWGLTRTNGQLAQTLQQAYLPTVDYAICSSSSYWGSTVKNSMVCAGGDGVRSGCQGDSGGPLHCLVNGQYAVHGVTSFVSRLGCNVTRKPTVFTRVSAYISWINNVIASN

For `O=c1cc(CO)occ1O` [Kojic acid], the “Parameter / Elastase” value in assay [1] came out at 21.60 ± 0.9 µg/mL.

As for `O=c1c(O)c(-c2ccc(O)c(O)c2)oc2cc(O)cc(O)c12` [Quercetin], the “Parameter / Collagenase” value in assay [2] is given as 24.83 ± 1.8 µg/mL.
